In patent US9018260B2, “Indanesulfamide derivatives” (Eisai R&D Management Co., Ltd., priority 2012, dated 2015):

Experiments:
[1] = test system: corneal kindled male C57Bl/6 mice; assay: Mouse corneal kindling model; type: in vivo; details: for Seizure severity score (Average): Racine's scale; for ED50: Mus musculus, po, dosage where 50% of animals showed seizure severity score 2 or less
Description: Male C57Bl/6 mice were stimulated twice daily for 10 days. The electric-stimulations with current intensities of 4.0 mA and duration of 3 s (pulse frequency 50 Hz) were applied via corneally placed saline-soaked copper electrodes.
Seizure severity was ranked according to a modified scoring system of the Racine's scale (Clin. Neurophysiol. 1972:32:281-294): Score 1, mild facial clonus and eye blinking; 2, severe facial clonus, head nodding, chewing; 3, unilateral or alternating forelimb clonus; 4, bilateral forelimb clonus with rearing; 5, bilateral forelimb clonus with rearing and falling; 6, tonic fore- and/or hindlimb extension. The fully kindled animals with the severity score 4 or more were used for evaluation.
Test compounds were dissolved in the vehicle (0.45% methyl cellulose/4.5% cremophor/10% DMSO), then orally (p.o.) or intraperitoneally (i.p.) administered to mice. The vehicle was orally administered as controls.
Electric stimulation was applied at 1 hour after p.o. or 20 minutes after i.p administration. Stimulation parameters were the same as during the kindling process. After electric stimulation, seizure severity was recorded for 30 seconds according to the Racine's scale.
Four to ten animals were used for calculation of average seizure severity score at each dose.

Rota rod test = type: in vivo, mouse; details: male, ddY, mouse, in vivo, po; dose at which fall off latency shorten by 50% of vehicle control value
Experimental: (§1) Rotarod apparatus (Rota-rod MK-660C, Muromachi-Kikai Co., Ltd.) was used for measurement. The motor was turned on and the rod rotation was continuously accelerated to a rate of 40 rpm over 180 sec.
(§2) Male ddY mice at an age of 5 weeks (Japan SLC) were used. On the experiment day, the mice were pretrained and only the animals able to remain on the rod for at least 60 s were selected for experiment.
(§3) Test compounds were dissolved in the vehicle (0.45% methyl cellulose/4.5% cremophor/10% dimethyl sulfoxide), then orally (p.o.) administered to mice. The vehicle was orally administered as controls. The effects of compounds were studied in groups of six to ten animals.
(§4) Latency for mice to fall off from the rod was measured. The toxic dose at which fall off latency shorten by 50% of vehicle control value (TD50) was calculated.
(§5) Therapeutic index were calculated by dividing the respective TD50 value in rota rod test by the ED50 value determined in the corneal kindling model.

male ddY mice = assay: Rota rod test; type: in vivo, mouse; details: route p.o.; TD50 in rota rod test divided by ED50 in corneal kindling model
Experimental: as §1, §2, §3, §4, §5

[2] = dose 10 mg/kg, p.o., stimulation 1 hour after administration
[3] = dose 25 mg/kg, p.o., stimulation 1 hour after administration
[4] = dose 25 mg/kg, p.o., stimulation 1 hour after administration, 25 mg/kg
[5] = dose 50 mg/kg, p.o., stimulation 1 hour after administration
[6] = dose 10 mg/kg, p.o., stimulation 1 hour after administration, 10 mg/kg
[7] = dose 10 mg/kg, i.p., stimulation 20 minutes after administration
[8] = dose 25 mg/kg, i.p., stimulation 20 minutes after administration

Row | Structure (SMILES) | Seizure severity score (Average) [1, 2] | Seizure severity score (Average) [1, 3] | other results
1 | Cc1cc(F)cc2c1C(NS(N)(=O)=O)CC2 (racemic) [Example 26, (±)-N-(5-fluoro-7-methyl-2,3-dihydro-1H-inden-1-yl)sulfamide] | 4.25 | 0 | –
2 | Cc1cc(Cl)cc2c1C(NS(N)(=O)=O)CC2 (racemic) [Example 30, (±)-N-(5-chloro-7-methyl-2,3-dihydro-1H-inden-1-yl)sulfamide] | 4.25 | 0.25 | –
3 | NS(=O)(=O)N[C@@H]1c2c(F)ccc(F)c2C[C@H]1F (relative stereo) [Example 15, N-[(1R*,2R*)-2,4,7-trifluoro-2,3-dihydro-1H-inden-1-yl]sulfamide] | 3 | 0 | –
4 | NS(=O)(=O)N[C@@H]1c2c(Cl)ccc(F)c2C[C@H]1F (relative stereo) [Example 16a, (−)-N-[(1R*,2R*)-7-chloro-2,4-difluoro-2,3-dihydro-1H-inden-1-yl]sulfamide] | – | – | Seizure severity score (Average) [1, 4]: 0
5 | NS(=O)(=O)N[C@@H]1c2c(Cl)ccc(F)c2C[C@H]1F (relative stereo) [Example 16b, (+)-N-[(1R*,2R*)-7-chloro-2,4-difluoro-2,3-dihydro-1H-inden-1-yl]sulfamide] | 3.75 | – | Seizure severity score (Average) [1, 4]: 0.5
6 | NS(=O)(=O)N[C@@H]1c2c(Cl)cc(F)cc2C[C@H]1F (relative stereo) [Example 17, (−)-N-[(1R*,2R*)-7-chloro-2,5-difluoro-2,3-dihydro-1H-inden-1-yl]sulfamide] | 2 | 0 | Seizure severity score (Average) [1, 5]: 0
7 | CO[C@@H]1Cc2c(Cl)ccc(F)c2[C@H]1NS(N)(=O)=O (relative stereo) [Example 18, (+)-N-[(1R*,2R*)-4-chloro-7-fluoro-2-methoxy-2,3-dihydro-1H-inden-1-yl]sulfamide] | 2 | 0 | –
8 | Cc1cc(C#N)cc2c1C(NS(N)(=O)=O)C(F)(F)C2 (single isomer, unassigned) [Example 4, N-[(1S*)-5-cyano-2,2-difluoro-7-methyl-2,3-dihydro-1H-inden-1-yl]sulfamide] | – | 0 | Seizure severity score (Average) [1, 5]: 0
9 | Cc1ccc(F)c2c1C(NS(N)(=O)=O)C(F)(F)C2 (single isomer, unassigned) [Example 13, N-[(1S*)-2,2,4-trifluoro-7-methyl-2,3-dihydro-1H-inden-1-yl]sulfamide] | 0 | – | –
10 | NS(=O)(=O)NC1c2c(cccc2C(F)F)CC1(F)F (single isomer, unassigned) [Example 14, N-[(1S*)-7-(difluoromethyl)-2,2-difluoro-2,3-dihydro-1H-inden-1-yl]sulfamide] | – | 0 | –
11 | N#Cc1cc(Cl)c2c(c1)CC[C@H]2NS(N)(=O)=O (single isomer, unassigned) [Example 22b, (−)-N-(7-chloro-5-cyano-2,3-dihydro-1H-inden-1-yl)sulfamide] | 3 | – | Seizure severity score (Average) [1, 4]: 0
12 | NS(=O)(=O)N[C@H]1CCc2cccc(Cl)c21 (single isomer, unassigned) [Example 24, (+)-N-(7-chloro-2,3-dihydro-1H-inden-1-yl)sulfamide] | 3 | 0 | –
13 | Cc1cc(C#N)cc2c1C(NS(N)(=O)=O)CC2 (single isomer, unassigned) [Example 25a, (+)-N-(5-cyano-7-methyl-2,3-dihydro-1H-inden-1-yl)sulfamide] | – | 0 | Seizure severity score (Average) [1, 6]: 1.75
14 | Cc1ccc(F)c2c1[C@@H](NS(N)(=O)=O)CC2 (single isomer, unassigned) [Example 28a, (+)-N-(4-fluoro-7-methyl-2,3-dihydro-1H-inden-1-yl)sulfamide] | – | 0 | Seizure severity score (Average) [1, 6]: 4
15 | NS(=O)(=O)NC1c2c(F)c(F)cc(F)c2CC1(F)F (single isomer, unassigned; (+)) [Example 3, (+)-N-(2,2,4,6,7-pentafluoro-2,3-dihydro-1H-inden-1-yl)sulfamide] | 1.5 | 0 | –
16 | NS(=O)(=O)NC1c2c(F)cc(Cl)cc2CC1(F)F (single isomer, unassigned; (+)) [Example 10, (+)-N-(5-chloro-2,2,7-trifluoro-2,3-dihydro-1H-inden-1-yl)sulfamide] | 0 | 0 | –
17 | NS(=O)(=O)NC1CCc2c(F)ccc(Cl)c21 (single isomer, unassigned; (+)) [Example 20, (+)-N-(7-chloro-4-fluoro-2,3-dihydro-1H-inden-1-yl)sulfamide] | – | – | Seizure severity score (Average) [1, 7]: 3.25; Seizure severity score (Average) [1, 8]: 0
18 | Cc1cccc2c1C(NS(N)(=O)=O)CC2 (single isomer, unassigned; (+)) [Example 27, (+)-N-(7-methyl-2,3-dihydro-1H-inden-1-yl)sulfamide] | 3 | 0 | –
19 | NS(=O)(=O)NC1c2c(ccc(F)c2F)CC1(F)F (single isomer, unassigned; (-)) [Example 5, (−)-N-(2,2,6,7-tetrafluoro-2,3-dihydro-1H-inden-1-yl)sulfamide] | 2 | 0 | ED50 [1]: 5.7 mg/kg; TD50 (Rota rod test): 404 mg/kg; Therapeutic index (male ddY mice): 70.9
20 | NS(=O)(=O)NC1c2c(Cl)ccc(F)c2CC1(F)F (single isomer, unassigned; (-)) [Example 7, (−)-N-(7-chloro-2,2,4-trifluoro-2,3-dihydro-1H-inden-1-yl)sulfamide] | – | – | Seizure severity score (Average) [1, 7]: 3.5; Seizure severity score (Average) [1, 8]: 0.25
21 | NS(=O)(=O)NC1c2c(ccc(F)c2Cl)CC1(F)F (single isomer, unassigned; (-)) [Example 9, (−)-N-(7-chloro-2,2,6-trifluoro-2,3-dihydro-1H-inden-1-yl)sulfamide] | – | 0 | Seizure severity score (Average) [1, 5]: 0
22 | NS(=O)(=O)NC1CCc2cc(Cl)cc(F)c21 (single isomer, unassigned; (-)) [Example 23, (−)-N-(5-chloro-7-fluoro-2,3-dihydro-1H-inden-1-yl)sulfamide] | 4.25 | 0 | –
23 | NS(=O)(=O)NC1CCc2c(F)cc(F)c(F)c21 (single isomer, unassigned; (-)) [Example 29, (−)-N-(4,6,7-trifluoro-2,3-dihydro-1H-inden-1-yl)sulfamide] | 3.5 | 0.83 | ED50 [1]: 15.8 mg/kg; Seizure severity score (Average) [1, 5]: 0; TD50 (Rota rod test): 157 mg/kg; Therapeutic index (male ddY mice): 9.93
24 | NS(=O)(=O)NC1CCc2c(Cl)ccc(F)c21 (single isomer, unassigned; (-)) [Example 31, (−)-N-(4-chloro-7-fluoro-2,3-dihydro-1H-inden-1-yl)sulfamide] | 1.5 | 0 | –
25 | NS(=O)(=O)N[C@H]1c2c(F)cc(F)cc2CC1(F)F [Example 1, N-[(1S)-2,2,5,7-tetrafluoro-2,3-dihydro-1H-inden-1-yl]sulfamide] | 2 | 0 | ED50 [1]: 7.9 mg/kg; Seizure severity score (Average) [1, 5]: 0; TD50 (Rota rod test): 390 mg/kg; Therapeutic index (male ddY mice): 49.4
26 | N#Cc1cc(Cl)c2c(c1)CC[C@H]2NS(N)(=O)=O [Example 22a, (+)-N-(7-chloro-5-cyano-2,3-dihydro-1H-inden-1-yl)sulfamide] | 3 | – | Seizure severity score (Average) [1, 4]: 0.25
27 | Cc1cc(C#N)cc2c1[C@@H](NS(N)(=O)=O)CC2 [Example 25b, (−)-N-(5-cyano-7-methyl-2,3-dihydro-1H-inden-1-yl)sulfamide] | – | 0 | Seizure severity score (Average) [1, 6]: 1
28 | Cc1ccc(F)c2c1[C@@H](NS(N)(=O)=O)CC2 [Example 28b, (−)-N-(4-fluoro-7-methyl-2,3-dihydro-1H-inden-1-yl)sulfamide] | – | 0 | Seizure severity score (Average) [1, 6]: 3.75
